According to US7320783B2, “Methods and compositions for the enhancement of wound healing” (The Regents of the University of Michigan, priority 2002, dated 2008):

Assays:
[1] = system: C57BL6Ksdb/db obese diabetic mouse dermal wounds; details: topical; Livant et al. (2000) J. Clin. Invest. 105: 1537-1545; cited from earlier work
[2] = system: C57BL6Ksdb/db obese diabetic mouse dermal wounds; experiment: Dermal wound healing in obese diabetic mice, topical application; type: in vivo; details: FIG. 7
From the text: X axis, days since wounding. Y axis, wound area, relative to the initial wound area (13 to 19 mm^2). Db/db: healing-impaired, homozygous db/db, obese diabetic mice; db/+: normally healing, heterozygous db/+, non-diabetic littermates. Mean wound areas are shown.
Peptides are further evaluated for their ability to stimulate the diabetic wound healing. The peptides are topically applied to duplicate dermal wounds in healing-impaired obese diabetic mice (Greenhalgh et al., (1990) Am. J. Pathol. 136: 1235-1246), according to published protocols (Livant et al., (2000) J. Clin. Invest. 105: 1537-1545). Wound closure times are determined in both treated and untreated mice. To confirm the importance of the cysteine switch residue, some wounds are treated with the C to S substituted peptides. To quantitate the extent of reepithelialization for several days wounding, wounds are excised, sectioned, stained, and examined microscopically. To evaluate the provisional matrix for indications of wound contraction and angiogenesis, the presence of activated fibroblasts, collagenous fibers, microvasculature, and wound macrophages is assessed in sectioned and stained wounds for several days following wounding as described (Livant et al., (2000) J. Clin. Invest. 105: 1537-1545). These assays are performed using peptides derived from MMP 1, MMP 2, MMP 7, and MMP 9.
Each treatment group consisted of 10 mice with duplicate, dermal wounds of 12.5 to 16.5 mm^2 made in the shoulder area. Complete methods were as described (Livant et al., (2000) J. Clin. Invest. 105: 1537-1545). Treated animal were treated with 10 μg switch (PRC) sequence from MMP2 (Ac-PRCGNPDVANY-NH2) (SEQ ID NO:3). Wound areas were measured by integration of digital images.

[3] = system: human microvascular cells; experiment: SU-ECM in vitro invasion assay, human microvascular cells; type: cell-based; details: peptide 2, 6, 20, 60 ng/ml; 5% FCS; 4 hours on SU-ECM; FIG. 1
From the text: (§1) About 1×10^5 human microvascular cells, neonatal fibroblasts, or undifferentiated human keratinocytes were suspended in medium containing 5% fetal calf serum (FCS), mixed with varying concentrations of the MMP 7 switch peptide, Ac-PRCGVPDVAEY-NH2 (Gaire et al., (1994) J. Biol. Chem. 269: 2032-2040), function-blocking anti human MMP 1 monoclonal antibody (Birkedal-Hansen et al., (1988) Biochemistry 27; 6751-6758), or total human IgG, and placed on the surfaces of SU-ECM in vitro invasion substrates. SU-ECM invasion substrates are made as described from sea urchin embryos, and contain a blastocoelic cavity enclosed by an intact basement membrane and associated extracellular matrix (Livant et al., (1995) Cancer Research 55, 5085-5093). After 4 hours of incubation (the time necessary to observe maximal invasion percentages), the invasion percentage in each assay was determined by microscopic examination of the SU-ECM invasion substrates and their associated cells at 400-fold magnification. Invasion percentages are the ratios of the numbers of cells located on the internal surfaces of SU-ECM to the total numbers of cells in contact with either the internal or the external surfaces of SU-ECM, and multiplied by 100.
(§2) Cell culture and SU-ECM invasion assays. […]

[4] = system: human neonatal fibroblasts; experiment: SU-ECM in vitro invasion assay, human neonatal fibroblasts; type: cell-based; details: peptide 2, 6, 20, 60 ng/ml; 5% FCS; 4 hours on SU-ECM; FIG. 3
From the text: as §1, §2

[5] = system: undifferentiated human keratinocytes; experiment: SU-ECM in vitro invasion assay, human keratinocytes; type: cell-based; details: peptide 2, 6, 20, 60 ng/ml; 5% FCS; 4 hours on SU-ECM; FIG. 5
From the text: as §1, §2

[6] = one topical treatment with 10 μg just after wounding

For Ac-PHSRN-NH2 (listed as Homo sapiens), which “stimulation of dermal wound healing in obese diabetic C57BL6Ksdb/db mice” value [1] is on record?
The value was “potent topical agent for stimulating dermal wound healing”.

For “Ac-PRCGNPDVANY-NH2 (listed as Homo sapiens) [PRC peptide]”, which “decrease of the time required for closure of all db/db wounds, relative to untreated db/db mice” value [2, 6] is on record?
Its value is 50%.

And the “rapidity of closure of treated db/db wounds compared with db/+ non-diabetic mice” value [2, 6]?
Its value is “as rapid as that of db/+ non-diabetic mice”.

And the “enhancement of db/db wound healing (wound area relative to the initial wound area)” value ([2]; single topical application)?
Its value is “enhancement”.

For “Ac-PRCGVPDVAEY-NH2 (listed as Homo sapiens) [MMP 7 switch peptide, MMP 7 prodomain cysteine switch peptide]”, which “induction of human microvascular cell invasion (percent of cells invaded)” value [3] is on record?
The value was “induces dose-dependent invasion”.

And the “induction of human neonatal fibroblast invasion (percent of fibroblasts invaded)” value [4]?
The value was “induces dose-dependent invasion”.

What about the “induction of human keratinocyte invasion (percent of keratinocytes invaded)” value [5] of the same substance?
The value was “induces dose-dependent invasion”.
